The target of one assay is Pepsin A (Sus scrofa, UniProt P00791). The experiment in a line: Inhibitory activity was evaluated against pepsin using porcine pepsin (sigma), porcine hemoglobin (sigma) and 0.02 M KCl-HCl buffer (pH 2).
Assay [1] addresses T1, Angiotensin-converting enzyme (Oryctolagus cuniculus, UniProt P12822).
T1 sequence (P12822 whole entry): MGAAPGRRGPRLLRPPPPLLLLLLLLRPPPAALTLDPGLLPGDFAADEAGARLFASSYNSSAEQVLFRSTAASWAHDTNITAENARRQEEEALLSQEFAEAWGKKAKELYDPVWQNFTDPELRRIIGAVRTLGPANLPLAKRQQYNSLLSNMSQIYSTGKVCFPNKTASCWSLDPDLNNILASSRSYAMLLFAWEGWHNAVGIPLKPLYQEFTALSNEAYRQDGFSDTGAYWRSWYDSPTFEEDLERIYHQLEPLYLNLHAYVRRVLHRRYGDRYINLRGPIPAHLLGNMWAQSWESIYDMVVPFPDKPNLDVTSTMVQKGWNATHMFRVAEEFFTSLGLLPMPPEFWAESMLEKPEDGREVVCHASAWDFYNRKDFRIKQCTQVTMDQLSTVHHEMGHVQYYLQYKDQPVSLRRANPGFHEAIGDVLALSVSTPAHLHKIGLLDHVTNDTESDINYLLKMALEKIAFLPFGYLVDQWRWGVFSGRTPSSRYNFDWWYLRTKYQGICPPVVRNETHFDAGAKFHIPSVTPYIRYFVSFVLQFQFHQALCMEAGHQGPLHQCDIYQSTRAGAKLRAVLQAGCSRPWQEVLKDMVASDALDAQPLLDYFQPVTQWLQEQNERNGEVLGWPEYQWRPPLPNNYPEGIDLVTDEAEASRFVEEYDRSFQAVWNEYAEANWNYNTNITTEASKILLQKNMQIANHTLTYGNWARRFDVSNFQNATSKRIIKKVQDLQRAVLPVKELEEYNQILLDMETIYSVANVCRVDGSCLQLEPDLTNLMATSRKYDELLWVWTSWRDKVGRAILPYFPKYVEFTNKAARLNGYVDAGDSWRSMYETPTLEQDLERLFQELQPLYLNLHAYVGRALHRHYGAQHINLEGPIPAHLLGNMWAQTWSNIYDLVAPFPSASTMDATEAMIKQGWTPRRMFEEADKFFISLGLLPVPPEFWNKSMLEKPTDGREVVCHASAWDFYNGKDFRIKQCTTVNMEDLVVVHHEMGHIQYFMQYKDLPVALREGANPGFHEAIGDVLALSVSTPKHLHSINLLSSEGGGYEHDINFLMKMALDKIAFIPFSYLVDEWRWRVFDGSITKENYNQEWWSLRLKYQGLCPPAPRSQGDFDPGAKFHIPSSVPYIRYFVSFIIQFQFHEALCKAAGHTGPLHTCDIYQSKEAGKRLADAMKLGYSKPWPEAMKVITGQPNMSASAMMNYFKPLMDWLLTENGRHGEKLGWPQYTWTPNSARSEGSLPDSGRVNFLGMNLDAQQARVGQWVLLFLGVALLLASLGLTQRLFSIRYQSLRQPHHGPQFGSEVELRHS
As to the kind of experiment: Inhibitory activity was evaluated against Angiotensin I converting enzyme activity in rabbit.

The next assay has as its target T2, Renin (Homo sapiens, UniProt P00797).
T2 sequence (P00797 whole entry): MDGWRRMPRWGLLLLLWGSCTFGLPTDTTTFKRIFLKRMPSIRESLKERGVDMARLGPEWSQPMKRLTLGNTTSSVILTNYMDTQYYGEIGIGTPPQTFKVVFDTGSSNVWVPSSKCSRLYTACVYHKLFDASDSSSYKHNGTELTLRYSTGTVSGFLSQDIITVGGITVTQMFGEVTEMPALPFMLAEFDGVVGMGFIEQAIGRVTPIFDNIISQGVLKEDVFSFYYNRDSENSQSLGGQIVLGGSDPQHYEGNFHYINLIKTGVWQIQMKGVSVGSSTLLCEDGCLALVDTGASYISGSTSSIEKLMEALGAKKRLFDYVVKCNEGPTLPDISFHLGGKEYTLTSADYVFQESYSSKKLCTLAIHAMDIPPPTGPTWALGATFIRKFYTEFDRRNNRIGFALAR
The experiment in a line: Plasma renin inhibitory activity was evaluated in lyophilized human plasma with 0.1%EDTA. Format: cell-free.

Non-standard residues stand in square brackets, D forms with d. Residues, ends and D or L forms follow the SMILES beside them. *: point of attachment. Sta = CC(C)C[C@H](N)[C@@H](O)CC(=O)O; NHCH2(2-pyridyl) = c1ccc(CN*)nc1; Boc = CC(C)(C)OC(=O)*

As a reminder, the IC50 is the point on the concentration scale where inhibition reaches its midpoint. Read a low IC50 as greater potency.

Chain of Pepsin A (P00791 whole entry): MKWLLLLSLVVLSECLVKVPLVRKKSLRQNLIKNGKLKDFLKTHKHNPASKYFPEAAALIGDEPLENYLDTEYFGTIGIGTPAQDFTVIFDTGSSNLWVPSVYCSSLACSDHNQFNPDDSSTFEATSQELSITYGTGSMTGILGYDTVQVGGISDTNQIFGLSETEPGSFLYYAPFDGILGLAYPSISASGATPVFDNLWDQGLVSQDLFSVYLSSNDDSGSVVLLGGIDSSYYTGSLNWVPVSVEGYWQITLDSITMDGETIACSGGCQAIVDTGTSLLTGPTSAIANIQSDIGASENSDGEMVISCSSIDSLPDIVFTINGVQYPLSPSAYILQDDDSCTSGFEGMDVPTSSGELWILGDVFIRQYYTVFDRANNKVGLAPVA

Take `CC(C)CC(=O)N[C@H](C(=O)N[C@H](C(=O)N[C@@H](CC(C)C)[C@@H](O)CC(=O)N[C@@H](C)C(=O)N[C@@H](CC(C)C)[C@@H](O)CC(=O)O)C(C)C)C(C)C` [PEPSTATIN]: at Pepsin A, the IC50 amounted to 0.01 µM.

The compound H-PHPFHFFVYK-OH [RIP] displayed a half-maximal inhibitory concentration (IC50) in assay [1] of 12 µM. This lies in the double-digit micromolar range.

At Renin, `CC[C@H](C)[C@H](NC(=O)C(F)(F)[C@H](O)[C@H](CC(C)C)NC(=O)[C@H](Cc1c[nH]cn1)NC(=O)[C@H](Cc1ccccc1)NC(=O)OC(C)(C)C)C(=O)NCc1ccccn1` displayed an IC50 of 0.012 µM. This lies in the double-digit nanomolar range.

As for `CC[C@H](C)[C@H](NC(=O)CC(=O)[C@H](CC(C)C)NC(=O)[C@H](Cc1c[nH]cn1)NC(=O)[C@H](Cc1ccccc1)NC(=O)OC(C)(C)C)C(=O)NCc1ccccn1`, half-maximal inhibition at Renin (IC50) required 0.034 µM.

As to `CC[C@H](C)[C@H](NC(=O)C(F)(F)[C@@H](O)[C@H](CC(C)C)NC(=O)[C@H](Cc1c[nH]cn1)NC(=O)[C@H](Cc1ccccc1)NC(=O)OC(C)(C)C)C(=O)NCc1ccccn1`, on Renin, the concentration for half-maximal inhibition (IC50) came out at 0.73 µM.

Regarding `CC[C@H](C)[C@H](NC(=O)C(F)(F)C(=O)[C@H](CC(C)C)NC(=O)[C@H](Cc1c[nH]cn1)NC(=O)[C@H](Cc1ccccc1)NC(=O)OC(C)(C)C)C(=O)NCc1ccccn1`, the concentration for half-maximal inhibition (IC50) against Renin came out at 0.00052 µM. This IC50 lies about 1400-fold lower than the previous one.

On to `CC[C@H](C)[C@H](NC(=O)C[C@H](O)[C@H](CC(C)C)NC(=O)[C@H](Cc1c[nH]cn1)NC(=O)[C@H](Cc1ccccc1)NC(=O)OC(C)(C)C)C(=O)NCc1ccccn1` (Boc-FH[Sta]I-{NHCH2(2-pyridyl)}), for which the IC50 on Renin worked out at 0.0017 µM.

(Values after ChEMBL document CHEMBL1123136, “Difluorostatine- and difluorostatone-containing peptides as potent and specific renin inhibitors” (J Med Chem, 1985).)
